According to patent US20260306484A1, “INVERSE AGONISTS OF RAR RELATED ORPHAN RECEPTORS (RORS)” (11949098 CANADA INC. (NUREDCO) c/o Jean I. TCHERVENKOV, priority 2023, published 2026):

Experiments:
breast cancer cell lines = experiment: Cell colony forming units, breast cancer; format: cell-based, human; conditions: 5 micromolar
[1] = system: pancreatic cancer (PDL1 expression); experiment: PDL1 immune checkpoint expression in pancreatic cancer; format: cell-based, human; conditions: pancreatic cancer (FIG. 19)
Hepa1-6 cells [2] = experiment: Hepa1-6 colony formation assay; format: cell-based, mouse
Source text: (§1) FIG. 32 illustrates another in vitro viability assay Colony Formation Assay. […] HuH-7 and Hepa1-6 colony formation assays.
(§2) FIG. 33 illustrates another in vitro viability assay Colony Formation Assay. […] HuH-7 and Hepa1-6 colony formation assays.

HuH-7 cells [3] = experiment: HuH-7 cell viability assay (MTT, GFP); format: cell-based, human
Source text: (§3) FIG. 30 illustrates in vitro cell viability assay both human HuH-7 and mouse Hepa1-6 cell lines with increasing concentrations of compound 10. In the human cell line you see an effect with as low as 1mMol concentration. HuH-7 and Hepa1-6 cell viability assays.

Hepa1-6 cells [4] = experiment: Hepa1-6 cell viability assay (MTT, GFP); format: cell-based, mouse; conditions: varying concentrations
Source text: as §3

HuH-7 cells [5] = experiment: HuH-7 colony formation assay; format: cell-based, human
Source text: as §1, §2

[6] = system: CD4+ cells from in-vitro polarized peripheral blood mononuclear cells; experiment: Th17-polarized PBMCs treated 48 h, then PMA/ionomycin and intracellular staining by flow cytometry; format: cell-based, human; conditions: 750 nM, PBMCs from 9 individuals, vs vehicle, paired t-test P<0.05
Experimental: FIG. 4 illustrates a bar graph represents the % of IL17A+ cells also known as Th17 cells out of CD4+ cells known as Helper T cells. The peripheral blood mononuclear cells from 9 individuals were polarized (in-vitro) using CD3/CD28 dynabeads in presence of TGFβ, IL1B, IL6 and IL23 for 14 days. The cells from each individual was divided into two equal portions and one portion was treated with the Cpd10 at dose of 750 nM and the second portion was treated with the vehicle for 48 hours followed by PMA/ionomycin in presence of transport blocker for 6 hours. Cpd10 decreased the % of IL17A+CD4+ in treated compared to vehicle treated controls and measured by flow cytometry. Paired t-test, significant, P<0.05.
(§4) FIG. 5 illustrates a bar graph represents the % of IL21+ cells which includes all types of CD4+ cells secreting IL21 (e.g. Th17, Tfh). The peripheral blood mononuclear cells from 9 individuals were polarized (in-vitro) using CD3/CD28 dynabeads in presence of TGFβ, IL1β, IL6 and IL23 for 14 days. The cells from each individual was divided into two equal portions and one portion was treated with the Cpd10 at dose of 750 nM and the second portion was treated with the vehicle for 48 hours followed by PMA/ionomycin in presence of transport blocker for 6 hours. Cpd10 decreased the % of IL21+CD4+ in treated compared to vehicle treated controls measured by flow cytometry. Paired t-test Significant P<0.05.
as §4, with “FIG. 6” for “FIG. 5”, “of IL22+” for “of IL21+”, “secreting IL22” for “secreting IL21”, “Th17, Th22).” for “Th17, Tfh).”, “of IL22+CD4+” for “of IL21+CD4+”, “Paired t-test, significant,” for “Paired t-test Significant”
FIG. 7 illustrates a bar graph represents the % RORγt+ cells which includes all types of CD4+ cells expressing RORγt (e.g. Th17). The peripheral blood mononuclear cells from 9 individuals were polarized (in-vitro) using CD3/CD28 dynabeads in presence of TGFβ, IL1β, IL6 and IL23 for 14 days. The cells from each individual was divided into two equal portions and one portion was treated with the Cpd10 at dose of 750 nM and the second portion was treated with the vehicle for 48 hours followed by PMA/ionomycin in presence of transport blocker for 6 hours. Cpd10 increased the % of RORγt+ CD4+ in treated compared to vehicle treated controls measured by flow cytometry. […]

Balb/c skin grafts = experiment: Balb/c skin graft survival in sensitized C57BL/6 recipients (Example 9); format: in vivo, mouse (C57BL/6); conditions: for median graft survival: daily ip, cpd 13 1 mg/kg, tacrolimus 0.5 mg/kg, or both, ctrl = 6 days, P-value<<0.001, mantel-cox test
Experimental: C57BL/6 mice were sensitized by 3 IP injections of 10 M Balb/c splenocytes at day 0, 7 and 14. The mice were transplanted at day 15 with 1 cm^2 skin grafts from Balb/c mice and treated daily with ip injections of vehicle (ctrl), cpd 13 1 mg/kg (131 mg/kg), tacrolimus 0.5 mg/kg (tacro0.5 mg/kg) and cpd13 1 mg/kg+tacrolimus 0.5 mg/kg (131 mg/kg+tacro0.5 mg/kg). P-value<<0.001, mantel-cox test; median graft survival: ctrl=6 days, tacro0.5 mg/kg=7 days, 131 mg/kg=13.5 days and cpd13 131 mg/kg+tacro0.5 mg/kg=23 days.

Structure (SMILES) | ability to form colony forming units (breast cancer cell lines) | expression of PDL1 [1] | minimal effective concentration (Hepa1-6 cells [2]; Mus musculus, Hepa1-6, both cell lines suppressed, read-out: concentration at which Hepa1-6 colony formation is suppressed) [µM] | Hepa1-6 colony growth ability (Hepa1-6 cells [2]; varying concentrations) | minimal effective concentration (HuH-7 cells [3]; human cell line HuH-7, read-out: lowest concentration with an effect on cell viability) [µM] | HuH-7 cell viability, GFP assay (HuH-7 cells [3]; varying concentrations) | HuH-7 cell viability, MTT assay (HuH-7 cells [3]; varying concentrations) | Hepa1-6 cell viability, GFP assay (Hepa1-6 cells [4]) | Hepa1-6 cell viability, MTT assay (Hepa1-6 cells [4]) | minimal effective concentration (HuH-7 cells [5]; Homo sapiens, Huh-7, both cell lines suppressed, read-out: concentration at which HuH-7 colony formation is suppressed) [µM] | HuH-7 colony growth ability (HuH-7 cells [5]; varying concentrations) | % of IL17A+ cells (Th17) out of CD4+ cells [6] | % of IL21+CD4+ cells [6] | % of IL22+CD4+ cells [6] | % of RORγt+ CD4+ cells [6] | median graft survival (Balb/c skin grafts) [days] | skin graft survival increase (Balb/c skin grafts; increase survival from 1 up to 3 weeks (FIG. 50))
CN1CCN(CC(=O)Nc2sc3c(c2C(=O)NCc2ccccc2)CCCC3)CC1 [Compound 10, N-benzyl-2-(2-(4-methylpiperazin-1-yl)acetamido)-4,5,6,7-tetrahydrobenzo[b]thiophene-3-carboxamide] | significantly reduces | increases that expression | 2500 | significant and dose dependent difference | 1000 | significant and dose dependent difference | significant and dose dependent difference | significant and dose dependent difference | significant and dose dependent difference | 2500 | significant and dose dependent difference | decreased | decreased | decreased | increased | – | –
C[C@@H]1CCN(C(=O)c2c(NC(=O)c3cccnc3)sc3c2CCCC3)[C@H](C)C1 [Compound 13, N-(3-((2R,4R)-2,4-dimethylpiperidine-1-carbonyl)-4,5,6,7-tetrahydrobenzo[b]thiophen-2-yl) nicotinamide] | – | – | – | – | – | – | – | – | – | – | – | – | – | – | – | 13.5 | up to 3 weeks
C=CC[C@@H]1/C=C(\C)C[C@H](C)C[C@H](OC)[C@H]2O[C@@](O)(C(=O)C(=O)N3CCCC[C@H]3C(=O)O[C@H](/C(C)=C/[C@@H]3CC[C@@H](O)[C@H](OC)C3)[C@H](C)[C@@H](O)CC1=O)[C@H](C)C[C@@H]2OC [tacrolimus, reference compound] | – | – | – | – | – | – | – | – | – | – | – | – | – | – | – | 7 | –
